From ChEMBL document CHEMBL2202990, “(R)- and (S)-4-Amino-3-(trimethylsilyl)methylbutanoic acids ameliorate neuropathic pain without central nervous system-related side effects” (Bioorg Med Chem Lett, 2012)
Activity calls are given as the source filed them.

Assays:
Mus musculus [1] = test: Toxicity against mouse assessed as protection against pentetrazole-induced death at 5 mg/kg; type: organism-based; design: dose 5 mg/kg; details: in vivo
Mus musculus [2] = test: Toxicity against mouse assessed as protection against pentetrazole-induced death at 15 mg/kg; type: organism-based; design: dose 15 mg/kg; details: in vivo
Mus musculus [3] = test: Toxicity against mouse assessed as protection against maximal-electroshock-induced tonic seizure at 5 mg/kg; type: organism-based; design: dose 5 mg/kg; details: in vivo
Mus musculus [4] = test: Toxicity against mouse assessed as protection against pentetrazole-induced death at 45 mg/kg; type: organism-based; design: dose 45 mg/kg; details: in vivo
Mus musculus [5] = test: Toxicity against mouse assessed as protection against maximal-electroshock-induced tonic seizure at 45 mg/kg; type: organism-based; design: dose 45 mg/kg; details: in vivo
Mus musculus [6] = test: Toxicity against mouse assessed as protection against maximal-electroshock-induced tonic seizure at 15 mg/kg; type: organism-based; design: dose 15 mg/kg; details: in vivo
Rattus norvegicus [7] = test: Toxicity against CD rat SNL pain model assessed as hypalgesic activity on the contralateral side of paw at 40 mg/kg, po at 90 mins relative to control; type: organism-based; design: dose 40 mg/kg, route oral; details: in vivo, 1.5 h
Rattus norvegicus [8] = test: Toxicity against CD rat SNL pain model assessed as hypalgesic activity on the contralateral side of paw at 20 mg/kg, po at 90 mins relative to control; type: organism-based; design: dose 20 mg/kg, route oral; details: in vivo, 1.5 h
Rattus norvegicus [9] = test: Antiallodynic activity in CD rat SNL pain model assessed as increase in paw withdrawal threshold at 20 mg/kg, po measured after 90 mins; type: functional, organism-based; design: dose 20 mg/kg
Rattus norvegicus [10] = test: Antiallodynic activity in CD rat SNL pain model assessed as increase in paw withdrawal threshold at 20 mg/kg, po measured from 30 to 60 mins; type: functional, organism-based; design: dose 20 mg/kg
Rattus norvegicus [11] = test: Antiallodynic activity in CD rat SNL pain model assessed as increase in paw withdrawal threshold at 40 mg/kg, po measured from 30 to 180 mins; type: functional, organism-based; design: dose 40 mg/kg
Rattus norvegicus [12] = test: Antiallodynic activity in CD rat SNL pain model assessed as increase in paw withdrawal threshold at 20 mg/kg, po measured from 30 to 180 mins; type: functional, organism-based; design: dose 20 mg/kg
Rattus norvegicus [13] = test: Toxicity against rat assessed as somnolence at 30 mg/kg; type: organism-based; design: dose 30 mg/kg; details: in vivo
Rattus norvegicus [14] = test: Antiallodynic activity in CD rat SNL pain model assessed as increase in paw withdrawal threshold at 20 mg/kg, po measured at 90 mins; type: functional, organism-based; design: dose 20 mg/kg
Rattus norvegicus [15] = test: Antiallodynic activity in CD rat SNL pain model assessed as increase in paw withdrawal threshold at 60 mg/kg, po measured up to 180 mins; type: functional, organism-based; design: dose 60 mg/kg

| Structure (SMILES) | Activity (Mus musculus [1]) | Activity (Mus musculus [2]) | Activity (Mus musculus [3]) | Activity (Mus musculus [4]) | Activity (Mus musculus [5]) | Activity (Mus musculus [6]) | Activity (Rattus norvegicus [7]) | Activity (Rattus norvegicus [8]) | Activity (Rattus norvegicus [9]) | Activity (Rattus norvegicus [10]) | Activity (Rattus norvegicus [11]) | Activity (Rattus norvegicus [12]) | Activity (Rattus norvegicus [13]) | Activity (Rattus norvegicus [14]) | Activity (Rattus norvegicus [15]) |
| --- | --- | --- | --- | --- | --- | --- | --- | --- | --- | --- | --- | --- | --- | --- | --- |
| C[Si](C)(C)C[C@@H](CN)CC(=O)O | Non-toxic | Non-toxic | Non-toxic | Non-toxic | Non-toxic | Non-toxic | Non-toxic | Non-toxic | inactive | Active |  |  |  |  |  |
| C[Si](C)(C)C[C@H](CN)CC(=O)O | Non-toxic | Non-toxic | Non-toxic | Non-toxic | Non-toxic | Non-toxic | Non-toxic | Non-toxic |  |  | Active | inactive |  |  |  |
| CC(C)C[C@H](CN)CC(=O)O [PREGABALIN] |  |  |  | Toxic | Toxic | Toxic |  | Toxic |  |  |  | Active | Toxic | Active |  |
| C[Si](C)(C)CC(CN)CC(=O)O (racemic) |  |  |  |  |  |  |  |  |  |  |  |  |  |  | Active |
